According to patent US20030220310A1, “Epoxy-steroidal aldosterone antagonist and calcium channel blocker combination therapy for treatment of congestive heart failure” (priority 2003, published 2003):

What was measured:
[1] = Single crystal X-ray structure, unit cell parameters; format: physicochemical; conditions: for R: crystal structure determination; for Volume / ρ (calculated): unit cell; for Z / a / b / c / α / β / γ: unit cell parameter; for Isostructural to Methyl Ethyl ketone Solvate?: eplerenone crystalline solvate
Description: Tables 8, 9 and 10 below summarize the unit cell parameters determined for Form H, Form L, and several solvated crystalline forms. […]

[2] = Thermogravimetric analysis of solvates (desolvation); format: physicochemical; conditions: eplerenone crystalline solvate; extrapolated from final solvent weight loss step, TGA, 10° C./minute, nitrogen purge
Method: Thermogravimetric analysis of solvates was performed using a TA Instruments TGA 2950 thermogravimetric analyzer. Samples were placed in an unsealed aluminum pan under nitrogen purge. Starting temperature was 25° C. with the temperature increased at a rate of about 10° C./minute.

[3] = system: myocardial fibrosis in animal models; conditions: cited from earlier work

| Isostructural to Methyl Ethyl ketone Solvate? [1] | Desolvation Temperature [2] [°C] | SMILES | other results |
| --- | --- | --- | --- |
| – | – | COC(=O)[C@@H]1CC2=CC(=O)CC[C@]2(C)C2=CC[C@@]3(C)C(CCC34CCC(=O)O4)C21 (stereo partly drawn) [9,11 olefin] | R [1]: 0.0764; Volume [1]: 2069.3 Å; ρ (calculated) [1]: 1.279 g/mL; Z [1]: 4; a [1]: 20.90 Å Å; b [1]: 15.74 Å Å; c [1]: 6.29 Å Å; α [1]: 90°; β [1]: 90°; γ [1]: 90° |
| Yes | – | CC(=O)O [Acetic Acid] | – |
| Yes | 166 | CCO [Ethanol] | – |
| Yes | 122 | CCOC(=O)CC [Ethyl Propionate] | – |
| Yes | 112 | CC(=O)OCC(C)C [Isobutyl Acetate] | – |
| Yes | 121 | CC(C)O [Isopropanol] | – |
| Yes | 103 | COC(C)=O [Methyl Acetate] | – |
| Yes | 130 | CCCOC(C)=O [Propyl Acetate] | – |
| Yes | 188 | CC(O)CO (stereo not drawn) [Propylene Glycol] | – |
| – | – | COC(=O)[C@@H]1CC23O[C@@H]2C(=O)CC[C@]3(C)[C@@]23OC2C[C@@]2(C)C(CCC24CCC(=O)O4)C13 (stereo partly drawn) [diepoxide, 7-methyl hydrogen 4α,5α:9α,11α-diepoxy-17-hydroxy-3-oxo-17α-pregnane-7α,21-dicarboxylate, γ-lactone] | R [1]: 0.0762; Volume [1]: 2119.0 Å; ρ (calculated) [1]: 1.349 g/mL; Z [1]: 4; a [1]: 21.328 Å Å; b [1]: 16.16 Å Å; c [1]: 6.15 Å Å; α [1]: 90°; β [1]: 90°; γ [1]: 90° |
| Yes | 103 | CCCCO [n-Butanol] | – |
| Yes | 116 | CCCCCCCCO [n-Octanol] | – |
| Yes | – | CCCO [n-Propanol] | – |
| – | – | CC(=O)S[C@@H]1CC2=CC(=O)CC[C@]2(C)[C@H]2CC[C@@]3(C)[C@@H](CC[C@@]34CCC(=O)O4)[C@H]12 [spironolactone] | myocardial fibrosis [3]: prevents myocardial fibrosis |

| SMILES | Isostructural to Methyl Ethyl ketone Solvate? [1] | Desolvation Temperature [2] [°C] | other results |
| --- | --- | --- | --- |
| CC(C)=O [Acetone] | Yes | 117 | – |
| CCCCOC(C)=O [Butyl Acetate] | Yes | 108 | – |
| ClC(Cl)Cl [Chloroform] | Yes | 125 | – |
| CCC(C)=O [Methyl Ethyl Ketone] | – | 89 | – |
| C1CCOC1 [Tetrahydrofuran] | Yes | 136 | – |
| Cc1ccccc1 [Toluene] | Yes | 83 | – |
| CC(=O)OC(C)(C)C [t-Butyl Acetate] | Yes | 109 | – |
